Test results: ChEMBL document CHEMBL1201862, “PubChem BioAssay data set” (2004)
Calls of active or inactive are those of the source.

Columns and labels:
[1] = viability loss in THP-1 monocytes – THP-1 cells, cytotoxicity control for Vif-APOBEC3G degradation inhibitor project, dose response (AID 1117359); type: functional; conditions: THP-1
Cytochrome P450 2C9 = Cytochrome P450 2C9 (Homo sapiens, UniProt P11712)
[2] = viability loss in human Jurkat cells – cell-based, luminescence, cytotoxicity control for P. falciparum gametocyte viability project, dose response (AID 1117277); type: functional;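 note: potency reflects loss of cellular ATP meaning fewer viable cells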
[3] = viability inhibitors of stage V gametocytes – luminescence, dose response (AID 1117278); type: functional, cell-based;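 note: gametocytes exposed to compound for 24 hours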
[4] = biological target: DNA dC->dU-editing enzyme APOBEC-3A (Homo sapiens, UniProt P31941); assay: Dose Response confirmation of small molecule APOBEC3A DNA Deaminase Inhibitors via a fluorescence-based single-stranded DNA deaminase assay. [Related pubchem assays (depositor defined):AID493011, AID493024]; type: functional
Chain of DNA dC->dU-editing enzyme APOBEC-3A (P31941 whole entry): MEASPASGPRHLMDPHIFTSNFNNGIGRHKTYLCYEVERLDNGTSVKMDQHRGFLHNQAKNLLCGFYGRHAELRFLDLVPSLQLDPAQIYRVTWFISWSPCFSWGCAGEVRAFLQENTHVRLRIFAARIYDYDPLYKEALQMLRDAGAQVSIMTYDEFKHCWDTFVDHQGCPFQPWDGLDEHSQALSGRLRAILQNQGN

[5] = biological target: DNA dC->dU-editing enzyme APOBEC-3G (Homo sapiens, UniProt Q9HC16); type: functional;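 note: Dose-response counterscreen measuring inhibition of APOBEC3G DNA deaminase activity, run while confirming APOBEC3A inhibitors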
Chain of DNA dC->dU-editing enzyme APOBEC-3G (Q9HC16 whole entry): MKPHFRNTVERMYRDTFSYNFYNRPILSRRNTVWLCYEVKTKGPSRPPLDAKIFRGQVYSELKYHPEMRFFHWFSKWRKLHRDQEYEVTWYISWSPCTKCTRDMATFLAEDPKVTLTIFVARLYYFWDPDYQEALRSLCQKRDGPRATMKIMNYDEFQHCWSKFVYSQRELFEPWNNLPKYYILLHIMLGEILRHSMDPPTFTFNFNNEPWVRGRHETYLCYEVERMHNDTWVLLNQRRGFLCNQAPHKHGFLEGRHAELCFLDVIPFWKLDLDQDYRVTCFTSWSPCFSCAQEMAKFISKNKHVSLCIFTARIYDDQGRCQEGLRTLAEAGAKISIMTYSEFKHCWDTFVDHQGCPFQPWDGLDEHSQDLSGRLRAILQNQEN

[6] = biological target: T1, Apoptotic protease-activating factor 1 (Homo sapiens, UniProt O14727); type: functional
T1 sequence (O14727 whole entry): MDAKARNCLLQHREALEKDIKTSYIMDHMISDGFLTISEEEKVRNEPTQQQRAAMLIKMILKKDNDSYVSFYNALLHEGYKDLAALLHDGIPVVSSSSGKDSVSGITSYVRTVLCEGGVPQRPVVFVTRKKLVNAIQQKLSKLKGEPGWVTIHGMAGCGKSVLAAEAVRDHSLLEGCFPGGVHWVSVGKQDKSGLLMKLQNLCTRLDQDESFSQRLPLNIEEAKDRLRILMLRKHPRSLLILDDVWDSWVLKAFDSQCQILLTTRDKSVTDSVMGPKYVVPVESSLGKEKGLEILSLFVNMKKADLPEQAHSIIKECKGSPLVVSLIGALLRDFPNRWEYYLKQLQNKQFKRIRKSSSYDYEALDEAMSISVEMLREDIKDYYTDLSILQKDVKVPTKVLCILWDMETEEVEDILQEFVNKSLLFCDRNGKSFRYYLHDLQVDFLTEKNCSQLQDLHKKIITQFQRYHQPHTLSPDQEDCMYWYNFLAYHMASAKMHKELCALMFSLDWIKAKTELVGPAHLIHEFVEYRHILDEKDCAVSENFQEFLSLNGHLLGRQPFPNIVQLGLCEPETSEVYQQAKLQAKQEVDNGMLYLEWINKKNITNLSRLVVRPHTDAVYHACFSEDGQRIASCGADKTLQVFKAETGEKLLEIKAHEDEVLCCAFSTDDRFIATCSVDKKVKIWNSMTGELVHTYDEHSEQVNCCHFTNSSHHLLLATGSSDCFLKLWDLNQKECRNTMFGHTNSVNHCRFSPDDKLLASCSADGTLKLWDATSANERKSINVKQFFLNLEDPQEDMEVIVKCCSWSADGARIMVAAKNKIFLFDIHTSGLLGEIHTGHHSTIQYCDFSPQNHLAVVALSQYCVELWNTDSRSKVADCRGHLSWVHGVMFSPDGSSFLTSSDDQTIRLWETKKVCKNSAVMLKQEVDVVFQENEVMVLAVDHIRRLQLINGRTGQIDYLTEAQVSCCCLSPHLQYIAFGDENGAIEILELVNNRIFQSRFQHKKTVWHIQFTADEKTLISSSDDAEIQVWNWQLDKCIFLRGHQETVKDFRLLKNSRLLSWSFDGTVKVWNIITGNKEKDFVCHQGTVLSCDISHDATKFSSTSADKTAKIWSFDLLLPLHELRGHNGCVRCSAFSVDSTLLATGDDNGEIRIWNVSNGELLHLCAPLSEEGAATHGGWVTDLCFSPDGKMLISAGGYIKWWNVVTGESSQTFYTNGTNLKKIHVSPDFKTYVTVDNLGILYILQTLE

Protein RecA = biological target: T2, Protein RecA (Mycobacterium tuberculosis, UniProt P9WHJ3); assay: Fluorescence Cell-Free Homogeneous Dose Retest to Identify Inhibitors of RecA-Intein Splicing Activity. [Related pubchem assays (depositor defined):AID2097, AID2223, AID489010, AID492950]; type: functional
T2 sequence (P9WHJ3 whole entry): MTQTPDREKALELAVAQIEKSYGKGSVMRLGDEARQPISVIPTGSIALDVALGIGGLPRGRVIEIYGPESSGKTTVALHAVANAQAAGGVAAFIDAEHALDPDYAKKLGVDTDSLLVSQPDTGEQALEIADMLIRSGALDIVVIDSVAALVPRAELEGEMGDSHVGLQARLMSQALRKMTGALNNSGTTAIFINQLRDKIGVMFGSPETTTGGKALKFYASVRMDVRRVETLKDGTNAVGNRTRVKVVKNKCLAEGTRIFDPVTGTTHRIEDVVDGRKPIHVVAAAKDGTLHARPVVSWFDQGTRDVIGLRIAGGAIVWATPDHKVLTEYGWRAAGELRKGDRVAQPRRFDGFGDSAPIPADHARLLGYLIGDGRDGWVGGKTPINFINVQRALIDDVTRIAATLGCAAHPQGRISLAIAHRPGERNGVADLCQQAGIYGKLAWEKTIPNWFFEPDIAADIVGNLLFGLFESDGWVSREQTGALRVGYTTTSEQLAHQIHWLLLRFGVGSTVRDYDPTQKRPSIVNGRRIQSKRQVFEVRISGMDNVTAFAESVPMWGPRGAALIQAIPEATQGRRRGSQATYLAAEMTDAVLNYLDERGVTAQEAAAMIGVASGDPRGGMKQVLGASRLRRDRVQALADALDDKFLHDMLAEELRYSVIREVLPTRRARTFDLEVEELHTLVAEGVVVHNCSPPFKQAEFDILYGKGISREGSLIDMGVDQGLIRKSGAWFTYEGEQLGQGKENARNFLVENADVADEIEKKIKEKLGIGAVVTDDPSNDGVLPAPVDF

[7] = biological target: T3, Mannose-6-phosphate isomerase (Homo sapiens, UniProt P34949); assay: MPI inhibition at elevated mannose 6-phosphate – biochemical, fluorescence intensity, high mannose 6-phosphate, primary screen (AID 1220)
T3 sequence (P34949 whole entry): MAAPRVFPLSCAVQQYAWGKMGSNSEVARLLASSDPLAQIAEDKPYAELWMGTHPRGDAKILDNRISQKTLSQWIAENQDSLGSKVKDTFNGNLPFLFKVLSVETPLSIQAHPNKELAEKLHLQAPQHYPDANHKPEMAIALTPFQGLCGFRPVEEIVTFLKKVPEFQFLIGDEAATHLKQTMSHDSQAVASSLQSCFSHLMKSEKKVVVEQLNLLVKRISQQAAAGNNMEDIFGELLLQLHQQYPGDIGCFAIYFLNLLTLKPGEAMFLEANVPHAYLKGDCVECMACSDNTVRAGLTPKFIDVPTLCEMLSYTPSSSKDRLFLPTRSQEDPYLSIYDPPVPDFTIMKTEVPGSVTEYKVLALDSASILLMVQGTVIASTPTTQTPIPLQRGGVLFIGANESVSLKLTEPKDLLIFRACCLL

[8] = biological target: Glucose-6-phosphate 1-dehydrogenase (Homo sapiens, UniProt P11413); assay: inhibition of Homo sapiens G6PD, dose series – biochemical, fluorescence, selectivity assay for P. falciparum G6PD inhibitor project, dose response (AID 504792); type: functional
Chain of Glucose-6-phosphate 1-dehydrogenase (P11413 whole entry): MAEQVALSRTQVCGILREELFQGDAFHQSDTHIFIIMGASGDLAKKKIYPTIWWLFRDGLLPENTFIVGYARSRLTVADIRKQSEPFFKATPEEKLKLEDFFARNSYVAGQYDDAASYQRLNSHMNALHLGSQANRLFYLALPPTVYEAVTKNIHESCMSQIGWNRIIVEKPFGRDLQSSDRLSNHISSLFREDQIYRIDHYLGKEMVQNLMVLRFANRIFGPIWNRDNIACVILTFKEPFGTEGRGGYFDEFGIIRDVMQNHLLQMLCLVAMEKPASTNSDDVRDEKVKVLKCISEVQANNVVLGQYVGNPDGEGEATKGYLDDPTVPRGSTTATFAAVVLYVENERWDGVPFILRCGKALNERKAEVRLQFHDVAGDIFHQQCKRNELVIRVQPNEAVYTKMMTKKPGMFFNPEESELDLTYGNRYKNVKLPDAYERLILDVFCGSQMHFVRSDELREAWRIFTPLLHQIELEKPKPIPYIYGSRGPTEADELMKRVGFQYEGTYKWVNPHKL

HT-1080 = assay: HT1080 cell viability loss – fluorescence readout (AID 620); type: functional, cell-based; conditions: Homo sapiens
[9] = biological target: Luciferin 4-monooxygenase (Photinus pyralis, UniProt P08659); assay: Counter Screen for Luciferase-based Assay Positives. [Related pubchem assays: 620, 618, 411 ]
Chain of Luciferin 4-monooxygenase (P08659 whole entry): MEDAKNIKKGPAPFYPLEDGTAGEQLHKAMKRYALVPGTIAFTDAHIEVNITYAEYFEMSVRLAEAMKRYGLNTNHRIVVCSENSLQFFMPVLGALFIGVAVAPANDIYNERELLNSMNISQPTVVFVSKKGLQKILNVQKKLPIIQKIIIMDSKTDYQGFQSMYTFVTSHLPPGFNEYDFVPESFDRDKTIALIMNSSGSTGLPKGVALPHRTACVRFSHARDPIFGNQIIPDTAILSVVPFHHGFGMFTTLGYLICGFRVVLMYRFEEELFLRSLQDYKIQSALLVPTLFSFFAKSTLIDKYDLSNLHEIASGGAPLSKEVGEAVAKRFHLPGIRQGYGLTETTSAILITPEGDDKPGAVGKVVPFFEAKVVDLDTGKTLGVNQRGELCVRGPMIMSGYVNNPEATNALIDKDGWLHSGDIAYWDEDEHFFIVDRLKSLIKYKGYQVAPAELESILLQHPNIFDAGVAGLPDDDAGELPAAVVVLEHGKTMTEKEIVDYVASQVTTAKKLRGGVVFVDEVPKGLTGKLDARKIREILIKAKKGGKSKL

[10] = HIV-1 Vif–A3G interaction blockers – biochemical, TR-FRET, GST-Vif 1-94, biotin-A3G peptide, dose response retest, primary screen (AID 1117319); type: functional;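 note: TR-FRET signal of purified GST-Vif binding a biotinylated A3G peptide; inhibitors lower the FRET signal by blocking Vif and A3G binding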

Chain of Cytochrome P450 2C9 (P11712 whole entry): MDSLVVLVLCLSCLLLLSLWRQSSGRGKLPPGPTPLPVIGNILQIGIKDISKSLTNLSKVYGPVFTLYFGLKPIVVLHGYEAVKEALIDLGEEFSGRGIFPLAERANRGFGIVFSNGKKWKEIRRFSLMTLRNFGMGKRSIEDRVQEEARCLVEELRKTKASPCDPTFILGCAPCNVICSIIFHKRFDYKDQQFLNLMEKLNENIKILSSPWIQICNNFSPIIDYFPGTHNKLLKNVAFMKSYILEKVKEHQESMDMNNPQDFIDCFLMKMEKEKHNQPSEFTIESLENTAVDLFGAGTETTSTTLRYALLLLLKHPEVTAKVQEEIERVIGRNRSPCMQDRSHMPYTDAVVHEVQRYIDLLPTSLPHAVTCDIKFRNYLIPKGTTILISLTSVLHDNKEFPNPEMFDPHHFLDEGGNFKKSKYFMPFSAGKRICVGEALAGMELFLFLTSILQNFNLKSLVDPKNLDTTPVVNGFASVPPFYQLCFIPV

In the case of `CCOC(=O)c1nc(O)c2c(C)c(C)sc2n1`, the CC50 [1] is reported as > 40 µM (active) and the AC50 (Cytochrome P450 2C9) is reported as 20 µM (inconclusive).

For `CCC(C)Sc1nc2c(c(=O)[nH]c(=O)n2C)n1CC(O)COc1ccccc1C` (stereo not drawn), the IC50 [2] was > 83.3 µM (inactive) and the IC50 [3] was > 109 µM (inactive).

For `CC(=O)OCCCn1c(C)[n+](C)c2cc(Cl)c(Cl)cc21`, the IC50 [4] was 2.27 µM (active) and the IC50 [5] was 2.41 µM (active).

In the case of `CCCCCn1c(N)c(C(=O)NCc2cccs2)c2nc3ccccc3nc21`, the IC50 [6] is reported as 53.7 µM (active), the EC50 (Protein RecA) is reported as 1.24 µM (active) and the IC50 [7] is reported as > 50 µM (not active).

With `CC1=CC(C)(C)[N+](C)(C)c2ccc(C)cc21` the IC50 [4] was 2.06 µM (active) and the IC50 [5] was 3.44 µM (active).

With `CCN(CC)CCCN1C(=O)CSC1c1ccc2c(c1)OCO2` (stereo not drawn) the IC50 [2] was > 83.3 µM (inactive) and the IC50 [3] was > 109 µM (inactive).

In the case of `CCC(c1ccc(O)c(O)c1)C(CC)c1ccc(O)c(O)c1` (stereo not drawn), the CC50 [1] is reported as 11.7 µM (active) and the IC50 [8] is reported as > 80 µM (inactive).

For `Cc1c(C(=O)NCC2CCCO2)oc2ccc3c(c12)C(=O)CC(C)(C)O3` (stereo not drawn), the EC50 (HT-1080) was > 50 µM (not active) and the EC50 [9] was 0.54 µM (active).

In the case of `CCC(Sc1nc2cc(OC)c(OC)cc2c(=O)n1Cc1ccco1)C(=O)NCCOC` (stereo not drawn), the IC50 [10] is reported as > 100 µM (active).
